Assay results from patent US12157730B2, “Heteroaryl derivative, method for producing same, and pharmaceutical composition comprising same as effective component” (VORONOI INC., priority 2019, dated 2024).

Molecular target: T1, Ba/F3 cell EGFR Exon20 ins NPH (Homo sapiens, UniProt P00533, INS773NPH)
T1 construct: expressed in transfected cells; host or cells: Ba/F3
Test: Ba/F3 cell proliferation suppression, EGFR Exon20 ins NPH
Format: cell-based
Conditions: GI50 class; Ba/F3 cell line with NPH inserted at Exon20 of EGFR; 72 hours
In short: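 Cells were seeded 24 h before dosing and then treated for 72 hours with compound at final concentrations of 0.3 nM to 50 um. Live cells were measured by CellTiter-Glo luminescence, and GI50 values were derived from growth ratio relative to control across three repeats.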

Ba/F3 (NPH) Activity | Structure (SMILES)
A (GI50 < 50 nM) | C=CC(=O)Nc1cc(Nc2cc(N3OCC[C@@H]3Cc3cccc(Cl)c3Cl)ncn2)c(OC)cc1N1CCC(N2CCO[C@@H](C)C2)CC1 [compound 1013, N-(5-((6-((S)-3-(2,3-dichlorobenzyl)isoxazolidine-2-yl)pyrimidine-4-yl)amino)-4-methoxy-2-(4-((S)-2-methylmorpholino)piperidine-1-yl)phenyl) acrylamide]
A (GI50 < 50 nM) | C=CC(=O)Nc1cc(Nc2cc(N3OCC[C@@H]3c3cc(F)ccc3F)ncn2)c(OC)cc1N1C[C@H]2C[C@@H]1CO2 [compound 328, N-(2-((1R,4R)-2-oxa-5-azabicyclo[2.2.1]heptane-5-yl)-5-((6-((R)-3-(2,5-difluorophenyl)isoxazolidine-2-yl)pyrimidine-4-yl)amino)-4-methoxyphenyl) acrylamide]
A (GI50 < 50 nM) | C=CC(=O)Nc1cc(Nc2cc(N3OCC[C@@H]3c3ccc(F)c(Cl)c3F)ncn2)c(OC)cc1N1CCC(N2C[C@H]3C[C@@H]2CO3)CC1 [compound 635, N-(2-(4-((1R,4R)-2-oxa-5-azabicyclo[2.2.1]heptane-5-yl)piperidine-1-yl)-5-((6-((R)-3-(3-chloro-2,4-difluorophenyl)isoxazolidine-2-yl)pyrimidine-4-yl)amino)-4-methoxyphenyl) acrylamide]
A (GI50 < 50 nM) | C=CC(=O)Nc1cc(Nc2cc(N3OCC[C@@H]3c3cccc(Cl)c3)ncn2)c(OC)cc1N1CCC(N2CCN(CC)CC2)CC1 [compound 412, N-(5-((6-((R)-3-(3-chlorophenyl)isoxazolidine-2-yl)pyrimidine-4-yl)amino)-2-(4-(4-ethylpiperazine-1-yl)piperidine-1-yl)-4-methoxyphenyl) acrylamide]
B (50 nM ≤ GI50 < 500 nM) | C=CC(=O)Nc1cc(Nc2cc(N3OCC[C@@H]3c3cc(F)cc(F)c3)ncn2)c(OC)cc1N1CCO[C@@H](C)C1 [compound 337, N-(5-((6-((R)-3-(3,5-difluorophenyl)isoxazolidine-2-yl)pyrimidine-4-yl)amino)-4-methoxy-2-((S)-2-methylmorpholino)phenyl)acrylamide]
B (50 nM ≤ GI50 < 500 nM) | C=CC(=O)Nc1cc(Nc2cc(N3OCC[C@@H]3c3ccc(C)nc3)ncn2)c(OC)cc1N1CCC(N2CCOCC2)CC1 [Example 45, N-(4-methoxy-5-((6-((R)-3-(6-methylpyridine-3-yl)isoxazolidine-2-yl)pyrimidine-4-yl)amino)-2-(4-morpholinopiperidine-1-yl)phenyl) acrylamide]
C (500 nM ≤ GI50 < 5000 nM) | C=CC(=O)Nc1cc(Nc2cc(N3OCC[C@H]3c3c(F)cccc3F)ncn2)c(OC)cc1N1CCC(N2CCN(C)CC2)CC1 [compound 896, N-(5-((6-((S)-3-(2,6-difluorophenyl)isoxazolidine-2-yl)pyrimidine-4-yl)amino)-4-methoxy-2-(4-(4-methylpiperazine-1-yl)piperidine-1-yl)phenyl)acrylamide]
A (GI50 < 50 nM) | C=CC(=O)Nc1cc(Nc2cc(N3OCC[C@@H]3c3cccc(OC)c3)ncn2)c(OC)cc1N(C)CCN(C)C [Example 24, N-(2-((2-(dimethylamino)ethyl) (methyl)amino)-4-methoxy-5-((6-((R)-3-(3-methoxyphenyl)isoxazolidine-2-yl)pyrimidine-4-yl)amino)phenyl) acrylamide]
A (GI50 < 50 nM) | C=CC(=O)Nc1cc(Nc2cc(N3OCC[C@@H]3Cc3cccc(F)c3C)ncn2)c(OC)cc1N1CCC(N2C[C@H]3C[C@@H]2CO3)CC1 [compound 1039, N-(2-(4-((1R,4R)-2-oxa-5-azabicyclo [2.2.1]heptane-5-yl)piperidine-1-yl)-5-((6-((S)-3-(3-fluoro-2-methylbenzyl)isoxazolidine-2-yl)pyrimidine-4-yl)amino)-4-methoxyphenyl) acrylamide]
A (GI50 < 50 nM) | C=CC(=O)Nc1cc(Nc2cc(N3OCC[C@@H]3Cc3cccc(F)c3Cl)ncn2)c(OC)cc1N1CCC(N2CCN(C3CC3)[C@H](C)C2)CC1 [compound 1036, N-(5-((6-((S)-3-(2-chloro-3-fluorobenzyl)isoxazolidine-2-yl)pyrimidine-4-yl)amino)-2-(4-((R)-4-cyclopropyl-3-methylpiperazine-1-yl)piperidine-1-yl)-4-methoxyphenyl) acrylamide]
A (GI50 < 50 nM) | C=CC(=O)Nc1cc(Nc2cc(N3OCC[C@@H]3c3ccc(F)c(F)c3)ncn2)c(OC)cc1N1CCC(N2CCC(N(C)C)CC2)CC1 [compound 546, N-(5-((6-((R)-3-(3,4-difluorophenyl)isoxazolidine-2-yl)pyrimidine-4-yl)amino)-2-(4-(dimethylamino)-[1,4'-bipiperidine]-1'-yl)-4-methoxyphenyl) acrylamide]
A (GI50 < 50 nM) | C=CC(=O)Nc1cc(Nc2cc(N3OCC[C@@H]3c3cccc(Cl)c3C)ncn2)c(OC)cc1N1CCC(N2CCOCC2)CC1 [compound 486, N-(5-((6-((R)-3-(3-chloro-2-methylphenyl)isoxazolidine-2-yl)pyrimidine-4-yl)amino)-4-methoxy-2-(4-morpholinopiperidine-1-yl)phenyl)acrylamide]
B (50 nM ≤ GI50 < 500 nM) | C=CC(=O)Nc1cc(Nc2cc(N3OCC[C@@H]3c3ccc4ccccc4c3)ncn2)c(OC)cc1N1CCN(CC)CC1 [compound 514, N-(2-(4-ethylpiperazine-1-yl)-4-methoxy-5-((6-((R)-3-(naphthalene-2-yl)isoxazolidine-2-yl)pyrimidine-4-yl)amino)phenyl)acrylamide]
A (GI50 < 50 nM) | C=CCN1CCN(C2CCN(c3cc(OC)c(Nc4cc(N5OCC[C@@H]5c5cccc(Cl)c5F)ncn4)cc3NC(=O)C=C)CC2)CC1 [Example 90, N-(2-(4-(4-allylpiperazine-1-yl)piperidine-1-yl)-5-((6-(R-3-(3-chloro-2-fluorophenyl)isoxazolidine-2-yl)pyrimidine-4-yl)amino)-4-methoxyphenyl) acrylamide]
B (50 nM ≤ GI50 < 500 nM) | C=CC(=O)Nc1cc(Nc2cc(N3OCC[C@@H]3c3ccc(F)c(Cl)c3F)ncn2)c(OC)cc1N1CCN(C)[C@@H](C)C1 [compound 665, N-(5-((6-((R)-3-(3-chloro-2,4-difluorophenyl)isoxazolidine-2-yl)pyrimidine-4-yl)amino)-2-((S)-3,4-dimethylpiperazine-1-yl)-4-methoxyphenyl) acrylamide]
A (GI50 < 50 nM) | C=CC(=O)Nc1cc(Nc2cc(N3OCC[C@@H]3c3cccc(Cl)c3)ncn2)c(OC)cc1N(C)CCN(C)C [compound 359, N-(5-((6-((R)-3-(3-chlorophenyl)isoxazolidine-2-yl)pyrimidine-4-yl)amino)-2-((2-(dimethylamino)ethyl)(methyl)amino)-4-methoxyphenyl) acrylamide]
A (GI50 < 50 nM) | C=CC(=O)Nc1cc(Nc2cc(N3OCC[C@@H]3c3ccc(F)cc3F)ncn2)c(OC)cc1N1CCC(N2CCN(C3CCOCC3)CC2)CC1 [Example 207, N-(5-((6-((R)-3-(2,4-difluorophenyl)isoxazolidine-2-yl)pyrimidine-4-yl)amino)-4-methoxy-2-(4-(4-(tetrahydro-2H-pyran-4-yl)piperazine-1-yl)piperidine-1-yl)phenyl)acrylamide]
A (GI50 < 50 nM) | C=CC(=O)Nc1cc(Nc2cc(N3OCC[C@@H]3c3cc(F)cc(Cl)c3)ncn2)c(OC)cc1N1CCN(C)CC1 [compound 537, N-(5-((6-((R)-3-(3-chloro-5-fluorophenyl)isoxazolidine-2-yl)pyrimidine-4-yl)amino)-4-methoxy-2-(4-methylpiperazine-1-yl)phenyl)acrylamide]
C (500 nM ≤ GI50 < 5000 nM) | C=CC(=O)Nc1cc(Nc2cc(N3OCC[C@H]3c3c(F)cccc3F)ncn2)c(OC)cc1N1CCC(N2C[C@@H](C)O[C@@H](C)C2)CC1 [compound 309, N-(5-((6-((S)-3-(2,6-difluorophenyl)isoxazolidine-2-yl)pyrimidine-4-yl)amino)-2-(4-((2S,6R)-2,6-dimethylmorpholino)piperidine-1-yl)-4-methoxyphenyl) acrylamide]
A (GI50 < 50 nM) | C=CC(=O)Nc1cc(Nc2cc(N3OCC[C@@H]3c3cccc(Cl)c3F)ncn2)c(OC)cc1N1CCC(N2CCC3(CC2)CC3)CC1 [compound 355, N-(2-(4-(6-azaspiro[2.5]octan-6-yl)piperidine-1-yl)-5-((6-((R)-3-(3-chloro-2-fluorophenyl)isoxazolidine-2-yl)pyrimidine-4-yl)amino)-4-methoxyphenyl) acrylamide]
A (GI50 < 50 nM) | C=CC(=O)Nc1cc(Nc2cc(N3OCC[C@@H]3c3cc(F)cc(Cl)c3)ncn2)c(OC)cc1N(C)CCN(C)C [compound 538, N-(5-((6-((R)-3-(3-chloro-5-fluorophenyl)isoxazolidine-2-yl)pyrimidine-4-yl)amino)-2-((2-(dimethylamino)ethyl)(methyl)amino)-4-methoxyphenyl)acrylamide]
A (GI50 < 50 nM) | C=CC(=O)Nc1cc(Nc2cc(N3OCC[C@@H]3c3cccc(Cl)c3)ncn2)c(OC)cc1N1CCOCC1 [compound 467, N-(5-((6-((R)-3-(3-chlorophenyl)isoxazolidine-2-yl)pyrimidine-4-yl)amino)-4-methoxy-2-morpholinophenyl) acrylamide]
C (500 nM ≤ GI50 < 5000 nM) | C=CC(=O)Nc1cc(Nc2cc(N3OCC[C@H]3c3c(F)cccc3F)ncn2)c(OC)cc1N1CCC(N2CCOCC2)CC1 [compound 897, N-(5-((6-((S)-3-(2,6-difluorophenyl)isoxazolidine-2-yl)pyrimidine-4-yl)amino)-4-methoxy-2-(4-morpholinopiperidine-1-yl)phenyl)acrylamide]
